Source: patent publication US20140343049A1, “DIHYDROFURAN DERIVATIVES AS INSECTICIDAL COMPOUNDS” (SYNGENTA PARTICIPATIONS AG, priority 2011, published 2014)

How the values were obtained:
Assay type in all cases: in vivo
[1] = tested on: Plutella xylostella (diamond back moth); assay: Plutella xylostella L2 larvae test on artificial diet; conditions: 144 h, 200 ppm (concentration in well 18 ppm), 6 days, larval mortality and growth regulation
Method: (§1) 24-well microtiter plate (MTP) with artificial diet was treated with test solutions at an application rate of 200 ppm (concentration in well 18 ppm) by pipetting. After drying, the MTPs were infested with L2 larvae (7-12 per well). After an incubation period of 6 days, samples were checked for larval mortality and growth regulation.

[2] = tested on: Tetranychus urticae (two-spotted spider mite); assay: Tetranychus urticae bean leaf disc spray test; conditions: foliar, 192 h, bean leaf discs sprayed at 200 ppm, mixed ages, egg, larval and adult mortality 8 days later
Source text: Bean leaf discs on agar in 24-well microtiter plates were sprayed with test solutions at an application rate of 200 ppm. After drying, the leaf discs are infested with mite populations of mixed ages. 8 days later, discs are checked for egg mortality, larval mortality, and adult mortality. […]

[3] = tested on: Spodoptera littoralis (Egyptian cotton leafworm); assay: Spodoptera littoralis cotton leaf disc spray test; conditions: foliar, 72 h, cotton leaf discs sprayed at 200 ppm, 5 L1 larvae, mortality, feeding behavior, growth regulation 3 days after treatment
Source text: Cotton leaf discs were placed on agar in a 24-well microtiter plate and sprayed with test solutions at an application rate of 200 ppm. After drying, the leaf discs were infested with 5 L1 larvae. The samples were checked for mortality, feeding behavior, and growth regulation 3 days after treatment (DAT).

[4] = tested on: Heliothis virescens (tobacco budworm); assay: Heliothis virescens egg test on artificial diet; conditions: 96 h, 200 ppm (concentration in well 18 ppm), eggs 0-24 h old, 4 days, egg mortality, larval mortality, growth regulation
Method: Eggs (0-24 h old) were placed in 24-well microtiter plate on artificial diet and treated with test solutions at an application rate of 200 ppm (concentration in well 18 ppm) by pipetting. After an incubation period of 4 days, samples were checked for egg mortality, larval mortality, and growth regulation.

[5] = tested on: Thrips tabaci (onion thrips); assay: Thrips tabaci sunflower leaf disc spray test; conditions: foliar, 168 h, sunflower leaf discs sprayed at 200 ppm, mixed ages, mortality after 7 days
Method: Sunflower leaf discs were placed on agar in a 24-well microtiter plate and sprayed with test solutions at an application rate of 200 ppm. […] After drying, the leaf discs were infested with a thrip population of mixed ages. After an incubation period of 7 days, samples were checked for mortality.

[6] = tested on: Diabrotica balteata (corn root worm); assay: Diabrotica balteata L2 larvae test on artificial diet; conditions: 120 h, 200 ppm (concentration in well 18 ppm), 5 days, larval mortality and growth regulation
Method: as §1, with “A 24-well” for “24-well”, “(6-10” for “(7-12”, “5” for “6”
as §1, with “A 24-well” for “24-well”, “12.5” for “200”, “MTP's” for “MTPs”, “(6-10” for “(7-12”, “5” for “6”

[7] = tested on: Myzus persicae (green peach aphid); assay: Myzus persicae (sachet) mixed population test; conditions: 120 h, sucrose solution, application rate 12.5 ppm, mortality 5 days after infestation
Source text: Test compounds were applied by pipette into 24 well plates and mixed with Sucrose solution. The plates were closed with a stretched Parafilm. A plastic stencil with 24 holes is placed onto the plate and infested pea seedlings were placed directly on the Parafilm. The infested plate is closed with a gel blotting paper and another plastic stencil and then turned upside down. 5 days after infestation the samples were checked on mortality. Application rate: 12.5 ppm.

CCNC(=O)c1ccc(C2=CC(c3cc(Cl)cc(Cl)c3)(C(F)(F)F)OC2)cc1C (stereo not drawn) [Compound A4]
≥ 80%: pest or weed control at 200 ppm [1] | pest or weed control at 200 ppm [2] | pest or weed control at 200 ppm [3] | pest or weed control at 200 ppm [4] | pest or weed control at 200 ppm [5] | pest or weed control at 200 ppm [6]

Cc1cc(C2=CC(c3cc(Cl)cc(Cl)c3)(C(F)(F)F)OC2)ccc1C(=O)NCc1cn(C)cn1 (stereo not drawn) [Compound A17]
≥ 80%: pest or weed control at 200 ppm [1] | pest or weed control at 200 ppm [2] | pest or weed control at 200 ppm [3] | pest or weed control at 200 ppm [4] | pest or weed control at 200 ppm [5] | pest or weed control at 200 ppm [6]

Cc1cc(C2=CC(c3cc(Cl)cc(Cl)c3)(C(F)(F)F)OC2)ccc1C(=O)NCCCBr (stereo not drawn) [Compound A19]
≥ 80%: pest or weed control at 200 ppm [1] | pest or weed control at 200 ppm [2] | pest or weed control at 200 ppm [3] | pest or weed control at 200 ppm [4] | pest or weed control at 200 ppm [5] | pest or weed control at 200 ppm [6]

Cc1cc(C2=CC(c3cc(Cl)cc(Cl)c3)(C(F)(F)F)OC2)ccc1C(=O)NCCC(F)(F)F (stereo not drawn) [Compound A20]
≥ 80%: pest or weed control at 200 ppm [1] | pest or weed control at 200 ppm [2] | pest or weed control at 200 ppm [3] | pest or weed control at 200 ppm [4] | pest or weed control at 200 ppm [5] | pest or weed control at 200 ppm [6]

CCC(C)NC(=O)c1ccc(C2=CC(c3cc(Cl)cc(Cl)c3)(C(F)(F)F)OC2)cc1C (stereo not drawn) [Compound A27]
≥ 80%: pest or weed control at 200 ppm [1] | pest or weed control at 200 ppm [2] | pest or weed control at 200 ppm [3] | pest or weed control at 200 ppm [4] | pest or weed control at 200 ppm [5] | pest or weed control at 200 ppm [6]

Cc1cc(C2=CC(c3cc(Cl)cc(Cl)c3)(C(F)(F)F)OC2)ccc1C(=O)NCC(F)F (stereo not drawn) [Compound A29]
≥ 80%: pest or weed control at 200 ppm [1] | pest or weed control at 200 ppm [2] | pest or weed control at 200 ppm [3] | pest or weed control at 200 ppm [4] | pest or weed control at 200 ppm [5] | pest or weed control at 200 ppm [6]

C#CC1(NC(=O)c2ccc(C3=CC(c4cc(Cl)cc(Cl)c4)(C(F)(F)F)OC3)cc2C)CCCCC1 (stereo not drawn) [Compound A30]
≥ 80%: pest or weed control at 200 ppm [1] | pest or weed control at 200 ppm [2] | pest or weed control at 200 ppm [5] | pest or weed control at 200 ppm [6]

Cc1cc(C2=CC(c3cc(Cl)cc(Cl)c3)(C(F)(F)F)OC2)ccc1C(=O)NCCC1OCCO1 (stereo not drawn) [Compound A31]
≥ 80%: pest or weed control at 200 ppm [1] | pest or weed control at 200 ppm [2] | pest or weed control at 200 ppm [3] | pest or weed control at 200 ppm [5] | pest or weed control at 200 ppm [6]

CSCCNC(=O)c1ccc(C2=CC(c3cc(Cl)cc(Cl)c3)(C(F)(F)F)OC2)cc1C (stereo not drawn) [Compound A49]
≥ 80%: pest or weed control at 200 ppm [1] | pest or weed control at 200 ppm [2] | pest or weed control at 200 ppm [3] | pest or weed control at 200 ppm [4] | pest or weed control at 200 ppm [6]

Cc1cc(C2=CC(c3cc(Cl)cc(Cl)c3)(C(F)(F)F)OC2)ccc1C(=O)Nc1cccc2ncccc12 (stereo not drawn) [Compound A57]
≥ 80%: pest or weed control at 200 ppm [1] | pest or weed control at 200 ppm [2] | pest or weed control at 200 ppm [3] | pest or weed control at 200 ppm [4] | pest or weed control at 200 ppm [6]

Cc1cc(C2=CC(c3cc(Cl)cc(Cl)c3)(C(F)(F)F)OC2)ccc1C(=O)Nc1cccc(F)c1 (stereo not drawn) [Compound A59]
≥ 80%: pest or weed control at 200 ppm [1] | pest or weed control at 200 ppm [3] | pest or weed control at 200 ppm [4] | pest or weed control at 200 ppm [5]

Cc1cc(C2=CC(c3cc(Cl)cc(Cl)c3)(C(F)(F)F)OC2)ccc1C(=O)NCC1CCS1 (stereo not drawn) [Compound A80]
≥ 80%: pest or weed control at 200 ppm [1] | pest or weed control at 200 ppm [2] | pest or weed control at 200 ppm [3] | pest or weed control at 200 ppm [4] | pest or weed control at 200 ppm [6]

Cc1cc(C2=CC(c3cc(Cl)cc(Cl)c3)(C(F)(F)F)OC2)ccc1C(=O)NCC1CCS1(=O)=O (stereo not drawn) [Compound A81]
≥ 80%: pest or weed control at 200 ppm [1] | pest or weed control at 200 ppm [2] | pest or weed control at 200 ppm [3] | pest or weed control at 200 ppm [4] | pest or weed control at 200 ppm [6]

CO/N=C/NC(=O)c1ccc(C2=CC(c3cc(Cl)cc(Cl)c3)(C(F)(F)F)OC2)cc1C (stereo not drawn) [Compound A86, (E)-4-[5-(3,5-Dichlorophenyl)-5-trifluoromethyl-2,5-dihydro-furan-3-yl]-N-[(methoxyimino)methyl]-2-methylbenzamide]
≥ 80%: pest or weed control at 200 ppm [1] | pest or weed control at 200 ppm [2] | pest or weed control at 200 ppm [3] | pest or weed control at 200 ppm [4] | pest or weed control at 200 ppm [5] | pest or weed control at 200 ppm [6]

CCNC(=O)c1ccc(C2=CC(c3cc(Cl)cc(Cl)c3)(C(F)(F)F)OC2)nc1C (stereo not drawn) [Compound C2]
≥ 80%: pest or weed control at 200 ppm [1] | pest or weed control at 200 ppm [2] | pest or weed control at 200 ppm [3] | pest or weed control at 200 ppm [5] | pest or weed control at 200 ppm [6]

COCC(C)NC(=O)c1ccc(C2=CC(c3cc(Cl)cc(Cl)c3)(C(F)(F)F)OC2)nc1C (stereo not drawn) [Compound C4]
≥ 80%: pest or weed control at 200 ppm [3] | pest or weed control at 200 ppm [5]

CCC(C)NC(=O)c1ccc(C2=CC(c3cc(Cl)cc(Cl)c3)(C(F)(F)F)OC2)nc1C (stereo not drawn) [Compound C7]
≥ 80%: pest or weed control at 200 ppm [1] | pest or weed control at 200 ppm [3] | pest or weed control at 200 ppm [4] | pest or weed control at 200 ppm [5] | pest or weed control at 200 ppm [6]

Cc1nc(C2=CC(c3cc(Cl)cc(Cl)c3)(C(F)(F)F)OC2)ccc1C(=O)NCc1ccc(Cl)nc1 (stereo not drawn) [Compound C14]
≥ 80%: pest or weed control at 200 ppm [1] | pest or weed control at 200 ppm [2] | pest or weed control at 200 ppm [3] | pest or weed control at 200 ppm [4] | pest or weed control at 200 ppm [6]

Cc1nc(C2=CC(c3cc(Cl)cc(Cl)c3)(C(F)(F)F)OC2)ccc1C(=O)NC1(C)CSC1 (stereo not drawn) [Compound C17]
≥ 80%: pest or weed control at 200 ppm [1] | pest or weed control at 200 ppm [2] | pest or weed control at 200 ppm [3] | pest or weed control at 200 ppm [5] | pest or weed control at 200 ppm [6]

Cc1nc(C2=CC(c3cc(Cl)cc(Cl)c3)(C(F)(F)F)OC2)ccc1C(=O)NC1CSC1 (stereo not drawn) [Compound C19]
≥ 80%: pest or weed control at 200 ppm [1] | pest or weed control at 200 ppm [2] | pest or weed control at 200 ppm [3] | pest or weed control at 200 ppm [5] | pest or weed control at 200 ppm [6]

Cc1nc(C2=CC(c3cc(Cl)cc(Cl)c3)(C(F)(F)F)OC2)ccc1C(=O)NC1CC2CCC1C2 (stereo not drawn) [Compound C20]
≥ 80%: pest or weed control at 200 ppm [1] | pest or weed control at 200 ppm [3] | pest or weed control at 200 ppm [4] | pest or weed control at 200 ppm [5] | pest or weed control at 200 ppm [6]

Cc1nc(C2=CC(c3cc(Cl)cc(Cl)c3)(C(F)(F)F)OC2)ccc1C(=O)NC1CCC1 (stereo not drawn) [Compound C21]
≥ 80%: pest or weed control at 200 ppm [1] | pest or weed control at 200 ppm [3] | pest or weed control at 200 ppm [4] | pest or weed control at 200 ppm [5] | pest or weed control at 200 ppm [6]

Cc1cc(C2=CC(c3cc(Cl)cc(Cl)c3)(C(F)(F)F)OC2)ccc1C(=O)NCCC(F)(F)F (stereo not drawn) [Compound D6]
≥ 80%: pest or weed control at 12.5 ppm [7]

CCC(C)NC(=O)c1ccc(C2=CC(c3cc(Cl)cc(Cl)c3)(C(F)(F)F)OC2)cc1C (stereo not drawn) [Compound D7]
≥ 80%: pest or weed control at 12.5 ppm [7]

Cc1cc(C2=CC(c3cc(Cl)cc(Cl)c3)(C(F)(F)F)OC2)ccc1C(=O)NC1CC2CCC1C2 (stereo not drawn) [Compound D22]
≥ 80%: pest or weed control at 200 ppm [1] | pest or weed control at 200 ppm [5] | pest or weed control at 200 ppm [6]

Cc1cc(C2=CC(c3cc(Cl)cc(Cl)c3)(C(F)(F)F)OC2=O)ccc1C(=O)NCC(=O)NCC(F)(F)F (stereo not drawn) [Compound E5]
≥ 80%: pest or weed control at 200 ppm [1] | pest or weed control at 200 ppm [2] | pest or weed control at 200 ppm [3] | pest or weed control at 200 ppm [4] | pest or weed control at 200 ppm [6]

Cc1cc(C2=CC(c3cc(Cl)cc(Cl)c3)(C(F)(F)F)OC2=O)ccc1C(=O)NC1CCC1 (stereo not drawn) [Compound E18]
≥ 80%: pest or weed control at 200 ppm [5]
